In the NIST ThermoML archive (doi:10.1021/je500381c):

Assay: xn = mol fraction of the nth substance listed
Details: for mass density / viscosity: 100 kPa, Liquid; for mass density: Vibrating tube method; for surface tension liquid-gas: Drop volume

CCC12CC3CC(CC(C3)C1)C2 [1-ethyladamantane] + CCCCCCCO
Details | mass density, 293.15 K [kg/m3] | mass density, 298.15 K [kg/m3] | mass density, 303.15 K [kg/m3] | mass density, 308.15 K [kg/m3] | mass density, 313.15 K [kg/m3] | surface tension liquid-gas, 298.15 K [mN/m] | viscosity, 293.15 K [mPa·s] | viscosity, 298.15 K [mPa·s] | viscosity, 303.15 K [mPa·s] | viscosity, 308.15 K [mPa·s]
x2 = 0 | 937.11 | 933.58 | 929.99 | 926.4 | 922.81 | 29.87 | 6.371 | 5.565 | 4.903 | 4.348
x2 = 0.0999 | 927.59 | 924.02 | 920.37 | 916.7 | 913.02 | 29.66 | 5.91 | 5.136 | 4.506 | 3.965
x2 = 0.1999 | 917.88 | 914.26 | 910.61 | 906.92 | 903.22 | 29.21 | 5.707 | 4.958 | 4.337 | 3.814
x2 = 0.2988 | 907.92 | 904.28 | 900.6 | 896.92 | 893.21 | 28.87 | 5.62 | 4.86 | 4.238 | 3.722
x2 = 0.3991 | 897.36 | 893.7 | 890.03 | 886.35 | 882.64 | 28.72 | 5.584 | 4.836 | 4.215 | 3.692
x2 = 0.4998 | 886.28 | 882.65 | 878.99 | 875.31 | – | 28.42 | 5.647 | 4.859 | 4.215 | 3.681
x2 = 0.5995 | 874.78 | 871.16 | 867.51 | 863.84 | – | 28.1 | 5.843 | 4.989 | 4.306 | 3.742
x2 = 0.7 | 862.6 | 859.01 | 855.39 | 851.75 | – | 27.75 | 6.077 | 5.156 | 4.424 | 3.824
x2 = 0.8002 | 849.85 | 846.29 | 842.7 | 839.08 | – | 27.23 | 6.41 | 5.422 | 4.63 | 3.985
x2 = 0.9 | 836.45 | 832.93 | 829.37 | 825.79 | – | 26.74 | 6.719 | 5.683 | 4.841 | 4.154
